For orientation: IC50 means the concentration that inhibits the measured activity by half.

These results are taken from patent US20050245527A1, “Nitrogen containing heterocyclic compounds and medicines containing the same” (priority 2002, published 2005).

The subject of test [1] is left saphenous nerve of rats (ectopic firing). The experiment in a line: Inhibition of ectopic firing. It is filed as in vivo. The conditions noted are these: Rattus norvegicus, iv; rats with cut left saphenous nerve, urethane anesthesia, compound via catheter in right cervical vein, number of firings in 10 seconds; read-out: Inhibition of ectopic firing (ID50). On the procedure:
<Inhibition of Ectopic Firing>
(1) The inhibitory effect on ectopic firing was evaluated by the following method, with reference to Burchiel, K J., Exp. Neurol., 102, 249-253 (1988).
(2) The left saphenous nerve of rats, in which ectopic firing was observed, was cut near the knee joint, and approximately 3 mm was cut off to avoid reattachment of the cut nerve. After more than a week, the left saphenous nerve was exposed under urethane (1 g/kg body weight) anesthesia, and the proximal part up to approximately 1 cm from the cut site was detached from the surrounding tissue. A catheter was inserted in the right cervical vein beforehand for administration of the compound.
(3) The detached nerve was placed on a platinum hook electrode and wetted with liquid paraffin to avoid drying of the nerve. The electrode was connected to a microelectrode amplifier, and the change in potential was recorded from an oscilloscope through an A/D converter onto a computer. The recorded nerve firing was evaluated based on the number of firings in 10 seconds, using analyzing software (AcqKnowledge).

The subject of a further test is sodium channels. It is filed as cell-based. The conditions noted are these: read-out: IC50 (μM), sodium channel-inhibiting activity; rat fetal cultured hippocampal neurons, SBFI fluorescence in the presence of 4-aminopyridine, 5 minutes after addition, 1 μM tetrodotoxin = 100%.

Some results are limits rather than exact numbers.

With `O=c1[nH]ccnc1CN1CCCC(CCc2ccccc2F)C1` (stereo not shown) [Example 156, 3-[3-[2-(2-Fluorophenyl)ethyl]piperidino]methyl-1H-pyrazin-2-one], in test [1], the ED50 lay within 0.5 to 1 mg/kg. The IC50 in the test with sodium channels was 4.5 µM.

`C[C@H]1C[C@@H](C(=O)Cc2ccccc2F)CCN1Cc1ncc[nH]c1=O` (relative stereo) [Example 415, cis-3-[4-[2-(2-Fluorophenyl)acetyl]-2-methylpiperidino]methyl-1H-pyrazin-2-one]: the ED50 in test [1] was below 0.5 mg/kg. Further, the IC50 with sodium channels stood at 4.6 µM.

In the case of `Cc1cccc(OCC2CCN(Cc3ncc[nH]c3=O)CC2)c1` [Example 153, 3-[4-(3-Methylphenoxymethyl)piperidino]methyl-1H-pyrazin-2-one], the ED50 in test [1] was in the range of 0.5 to 1 mg/kg. Besides, the IC50 with sodium channels turned out to be 4.1 µM.

As to `O=c1[nH]ccnc1CN1CCC(C#Cc2ccccc2F)CC1` [Example 170, 3-[4-[(2-Fluorophenyl)ethynyl]piperidino]methyl-1H-pyrazin-2-one], in test [1], the ED50 was below 0.5 mg/kg. Besides, the IC50 in the test with sodium channels is 0.4 µM.

With `Cc1ccc(-c2ccccc2)n1CC1(O)CCN(Cc2ncc[nH]c2=O)CC1` [Example 212, 3-[4-Hydroxy-4-(2-methyl-5-phenylpyrrol-1-yl)methyl-piperidino]methyl-1H-pyrazin-2-one], in test [1], the ED50 is 0.5 to 1 mg/kg. For the same molecule, the IC50 in the test on sodium channels came out at 6.1 µM.

As for `O=c1cncc(CCN2CCC(CCc3ccccc3F)CC2)[nH]1` [Example 243, 6-[2-[4-[2-(2-Fluorophenyl)ethyl]piperidino]ethyl]-1H-pyrazin-2-one], the ED50 in test [1] is below 0.5 mg/kg. In addition, the IC50 with sodium channels came to 5.7 µM.

For `Cc1ccccc1OCC1CCN(Cc2ncc[nH]c2=O)C1.O=C(O)C(=O)O` (stereo not shown) [Example 136, 3-[3-(2-Methylphenoxymethyl)pyrrolidino]methyl-1H-pyrazin-2-one oxalate], the ED50 in test [1] fell in the range of 0.5 to 1 mg/kg. The IC50 in the test on sodium channels is 4.7 µM.

As for `O=c1[nH]ccnc1CN1CCC(COc2cccc(F)c2)CC1` [Example 162, 3-[4-(3-Fluorophenoxymethyl)piperidino]methyl-1H-pyrazin-2-one], the ED50 in test [1] was 0.5 to 1 mg/kg. Further, the IC50 in the test with sodium channels was found to be 4.6 µM.

On to `O=c1[nH]ccnc1CN1CCC(c2nc(-c3ccccc3F)no2)CC1` [Example 187, 3-[4-[3-(2-Fluorophenyl)-1,2,4-oxadiazol-5-yl]piperidino]methyl-1H-pyrazin-2-one], for which, in test [1], the ED50 was 0.5 to 1 mg/kg. The IC50 with sodium channels was 3.5 µM.

Turning to `O=c1cncc(CCN2CCC(COc3cc(F)ccc3F)CC2)[nH]1` [Example 241, 6-[2-[4-(2,5-Difluorophenoxymethyl)piperidino]ethyl]-1H-pyrazin-2-one], the ED50 in test [1] was in the range of 0.5 to 1 mg/kg. The IC50 in the test on sodium channels turned out to be 5 µM.

Regarding `O=c1[nH]ccnc1CN1CCC(COc2cc(F)ccc2F)CC1` [Example 151, 3-[4-(2,5-Difluorophenoxymethyl)piperidino]methyl-1H-pyrazin-2-one], in test [1], the ED50 fell in the range of 0.5 to 1 mg/kg. Besides, in the test with sodium channels, the half-maximal inhibitory concentration (IC50) was 2.9 µM.

For the molecule `COc1ccccc1OCC1CCN(Cc2nc3ccccc3[nH]c2=O)CC1` [Example 205, 3-[4-(2-Methoxyphenoxymethyl)piperidino]methyl-1H-quinoxalin-2-one], in test [1], the ED50 fell in the range of 0.5 to 1 mg/kg. Also, the IC50 in the test with sodium channels stood at 2.6 µM.

With `O=c1[nH]ccnc1CN1CCC(COc2ccccc2)CC1` [Example 198, 3-[4-(Phenoxymethyl)piperidino]methyl-1H-pyrazin-2-one], the ED50 in test [1] was below 0.5 mg/kg. The IC50 in the test with sodium channels amounted to 1.6 µM.

With `O=c1cncc(CCN2CCC(COc3ccccc3Cl)CC2)[nH]1` [Example 235, 6-[2-[4-(2-Chlorophenoxymethyl)piperidino]ethyl]-1H-pyrazin-2-one], in test [1], the ED50 was below 0.5 mg/kg. For the same molecule, in the test on sodium channels, the IC50 was 5 µM.

As to `O=c1[nH]ccnc1CN1CCC(c2nc(-c3cccc(F)c3)no2)CC1` [Example 188, 3-[4-[3-(3-Fluorophenyl)-1,2,4-oxadiazol-5-yl]piperidino]methyl-1H-pyrazin-2-one], the ED50 in test [1] is 0.5 to 1 mg/kg. In addition, in the test on sodium channels, the IC50 stood at 5 µM.

With `O=c1[nH]cccc1CN1CC2CCCC(C1)C2/C=C/c1ccccc1F` (stereo not drawn) [Example 129, anti-(E)-3-[9-[2-(2-Fluorophenyl)vinyl]-3-azabicyclo[3.3.1]non-3-yl]methyl-1H-pyridin-2-one], the ED50 in test [1] lay within 0.5 to 1 mg/kg. Besides, the IC50 with sodium channels came to 2.1 µM.

Regarding `O=C(Cc1c(F)cccc1C(F)(F)F)C1CCN(Cc2ncc[nH]c2=O)CC1` [Example 376, 3-[4-[2-[2-Fluoro-6-(trifluoromethyl)phenyl]acetyl]piperidino]methyl-1H-pyrazin-2-one], in test [1], the ED50 was below 0.5 mg/kg. In addition, the IC50 with sodium channels turned out to be 1.1 µM.

On to `CC(c1ncc[nH]c1=O)N1CCC(C(=O)Cc2ccccc2C(F)(F)F)CC1.O=C(O)C(=O)O` (stereo not shown) [Example 394, 3-[1-[4-[2-[2-(Trifluoromethyl)phenyl]acetyl]piperidino]ethyl]-1H-pyrazin-2-one oxalate], for which the ED50 in test [1] is below 0.5 mg/kg. Besides, the concentration for half-maximal inhibition (IC50) in the test on sodium channels was determined as 2.8 µM.

Consider `O=C(CC1CCN(Cc2ncc[nH]c2=O)CC1)c1ccccc1Cl` [Example 174, 3-[4-[2-(2-Chlorophenyl)-2-oxoethyl]piperidino]methyl-1H-pyrazin-2-one], for which, in test [1], the ED50 is below 0.5 mg/kg. Also, in the test on sodium channels, the IC50 worked out at 3.6 µM.

Take `O=c1cncc(CCN2CCC(COc3ccc(F)cc3F)CC2)[nH]1` [Example 239, 6-[2-[4-(2,4-Difluorophenoxymethyl)piperidino]ethyl]-1H-pyrazin-2-one]: the ED50 in test [1] lay in the range of 0.5 to 1 mg/kg. The IC50 in the test on sodium channels was 9.1 µM.

As to `CCOc1ccccc1CC(=O)C1CCN(Cc2ncc[nH]c2=O)CC1` [Example 347, 3-[4-[2-(2-Ethoxyphenyl)acetyl]piperidino]methyl-1H-pyrazin-2-one], the ED50 in test [1] is below 0.5 mg/kg. Besides, the IC50 in the test with sodium channels was 3 µM.

On to `Cc1ccccc1OCC1CCN(CCc2cncc(=O)[nH]2)CC1` [Example 236, 6-[2-[4-(2-Methylphenoxymethyl)piperidino]ethyl]-1H-pyrazin-2-one], for which, in test [1], the ED50 was below 0.5 mg/kg. In addition, in the test on sodium channels, the IC50 is 7 µM.

In the case of `Cc1ccsc1/C=C/C1CCN(Cc2ncc[nH]c2=O)CC1` [Example 157, (E)-3-[4-[2-(3-Methyl-2-thienyl)vinyl]piperidino]methyl-1H-pyrazin-2-one], in test [1], the ED50 was below 0.5 mg/kg. Further, in the test with sodium channels, the concentration for half-maximal inhibition (IC50) worked out at 3.6 µM.

Consider `Cc1ccccc1CC(=O)C1CCN(Cc2ncc[nH]c2=O)CC1` [Example 184, 3-[4-[2-(2-Methylphenyl)acetyl]piperidino]methyl-1H-pyrazin-2-one], for which the ED50 in test [1] was below 0.5 mg/kg. In addition, in the test on sodium channels, the IC50 is 2.9 µM.

Consider `COc1ccccc1C(=O)CC1CCN(Cc2ncc[nH]c2=O)CC1` [Example 145, 3-[4-[2-(2-Methoxyphenyl)-2-oxoethyl]piperidino]methyl-1H-pyrazin-2-one], for which the ED50 in test [1] fell in the range of 0.5 to 1 mg/kg. Moreover, in the test on sodium channels, the concentration for half-maximal inhibition (IC50) is 9.5 µM.

As for `CC1(C(=O)Cc2ccccc2F)CCN(Cc2ncc[nH]c2=O)CC1` [Example 365, 3-[4-[2-(2-Fluorophenyl)acetyl]-4-methylpiperidino]methyl-1H-pyrazin-2-one], the ED50 in test [1] was below 0.5 mg/kg. Further, the IC50 with sodium channels was 3.4 µM.

Turning to `O=c1[nH]ccnc1CN1CCC(CCc2sccc2F)CC1` [Example 172, 3-[4-[2-(3-Fluoro-2-thienyl)ethyl]piperidino]methyl-1H-pyrazin-2-one], in test [1], the ED50 fell in the range of 0.5 to 1 mg/kg. Moreover, in the test with sodium channels, the IC50 was 5 µM.

As to `Cc1ccccc1OCC1(O)CCN(Cc2ncc[nH]c2=O)CC1` [Example 210, 3-[4-Hydroxy-4-(2-methylphenoxymethyl)piperidino]methyl-1H-pyrazin-2-one], the ED50 in test [1] fell in the range of 0.5 to 1 mg/kg. For the same molecule, in the test with sodium channels, the IC50 turned out to be 6 µM.

Take `O=C(Cc1cccc(F)c1F)C1CCN(Cc2ncc[nH]c2=O)CC1` [Example 200, 3-[4-[2-(2,3-Difluorophenyl)acetyl]piperidino]methyl-1H-pyrazin-2-one]: in test [1], the ED50 was in the range of 0.5 to 1 mg/kg. The IC50 in the test with sodium channels is 1.6 µM.

Take `O=c1[nH]ccnc1CN1CCC(CCc2cccc3c2OCC3)CC1` [Example 140, 3-[4-[2-(2,3-Dihydrobenzofuran-7-yl)ethyl]piperidino]methyl-1H-pyrazin-2-one]: the ED50 in test [1] was below 0.5 mg/kg. For the same molecule, the IC50 with sodium channels was found to be 5.6 µM.

With `O=c1[nH]ccnc1CN1CCC(COc2ccccc2OC(F)(F)F)CC1` [Example 167, 3-[4-[2-(Trifluoromethoxy)phenoxymethyl]piperidino]methyl-1H-pyrazin-2-one], the ED50 in test [1] is below 0.5 mg/kg. Also, the IC50 with sodium channels amounted to 2.3 µM.

Turning to `O=C(c1ccccc1F)N(C(=O)c1ccccc1F)C1(O)CCN(Cc2ncc[nH]c2=O)CC1` [Example 214, 2-Fluoro-N-(2-fluorobenzoyl)-N-[4-hydroxy-1-(3-oxo-3,4-dihydro-2-pyrazinylmethyl)piperidin-4-yl]benzamide], the ED50 in test [1] was in the range of 0.5 to 1 mg/kg. Further, the IC50 in the test with sodium channels was 8.7 µM.

Turning to `CC1(C(=O)Cc2ccccc2C(F)(F)F)CCN(Cc2ncc[nH]c2=O)CC1` [Example 373, 3-[4-Methyl-4-[2-[2-(trifluoromethyl)phenyl]acetyl]piperidino]methyl-1H-pyrazin-2-one], the ED50 in test [1] is below 0.5 mg/kg. The IC50 in the test with sodium channels was determined as 1.6 µM.

As for `O=c1[nH]ccnc1CCN1CCC(COc2ccccc2F)CC1` [Example 232, 3-[2-[4-(2-Fluorophenoxymethyl)piperidino]ethyl]-1H-pyrazin-2-one], in test [1], the ED50 is below 0.5 mg/kg.
